Results published in publication PMC10233710 (ChemMedChem, 2023).
Like-named read-outs stand apart in the source and are kept apart here.

How the values were obtained:
MCF-7 cells = assay: MTT cytotoxicity assay, MCF-7; assay type: cell-based, human; conditions: read-out: GI50 ± SD (μM) MCF-7
recombinant human TDP1 = recombinant human TDP1 (Homo sapiens, UniProt Q9NUW8); assay: TDP1 gel-based inhibition assay; assay type: biochemical
HCT-116 cells = assay: MTT cytotoxicity assay, HCT-116; assay type: cell-based, human; conditions: read-out: GI50 ± SD (μM) HCT-116
recombinant TOP1 = target: T1, recombinant TOP1 (Homo sapiens, UniProt P11387); assay: TOP1-mediated DNA cleavage assay; assay type: biochemical; conditions: TOP1 cleavage inhibitory activity, semiquantitative relative to CPT at 1 μM
T1 sequence (P11387 1-765): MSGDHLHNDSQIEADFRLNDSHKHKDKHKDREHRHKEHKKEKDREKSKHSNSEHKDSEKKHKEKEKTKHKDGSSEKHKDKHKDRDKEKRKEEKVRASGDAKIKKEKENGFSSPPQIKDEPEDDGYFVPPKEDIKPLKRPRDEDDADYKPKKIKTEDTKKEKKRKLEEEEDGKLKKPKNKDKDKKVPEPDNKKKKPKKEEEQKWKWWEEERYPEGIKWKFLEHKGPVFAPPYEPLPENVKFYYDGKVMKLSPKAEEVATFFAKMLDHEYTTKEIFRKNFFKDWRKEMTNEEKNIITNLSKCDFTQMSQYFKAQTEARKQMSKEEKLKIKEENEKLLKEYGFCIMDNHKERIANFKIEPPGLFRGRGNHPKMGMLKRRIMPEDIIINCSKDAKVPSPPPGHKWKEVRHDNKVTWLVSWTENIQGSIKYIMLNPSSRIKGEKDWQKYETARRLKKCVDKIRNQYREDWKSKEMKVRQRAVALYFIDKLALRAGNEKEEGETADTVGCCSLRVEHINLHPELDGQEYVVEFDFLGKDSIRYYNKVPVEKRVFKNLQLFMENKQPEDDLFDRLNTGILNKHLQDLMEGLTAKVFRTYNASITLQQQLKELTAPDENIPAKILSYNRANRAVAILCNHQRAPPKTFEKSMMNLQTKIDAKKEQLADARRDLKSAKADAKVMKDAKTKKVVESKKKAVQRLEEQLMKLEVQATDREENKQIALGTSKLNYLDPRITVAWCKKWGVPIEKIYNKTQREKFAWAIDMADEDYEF

recombinant human TDP1, sequence (Q9NUW8 whole entry): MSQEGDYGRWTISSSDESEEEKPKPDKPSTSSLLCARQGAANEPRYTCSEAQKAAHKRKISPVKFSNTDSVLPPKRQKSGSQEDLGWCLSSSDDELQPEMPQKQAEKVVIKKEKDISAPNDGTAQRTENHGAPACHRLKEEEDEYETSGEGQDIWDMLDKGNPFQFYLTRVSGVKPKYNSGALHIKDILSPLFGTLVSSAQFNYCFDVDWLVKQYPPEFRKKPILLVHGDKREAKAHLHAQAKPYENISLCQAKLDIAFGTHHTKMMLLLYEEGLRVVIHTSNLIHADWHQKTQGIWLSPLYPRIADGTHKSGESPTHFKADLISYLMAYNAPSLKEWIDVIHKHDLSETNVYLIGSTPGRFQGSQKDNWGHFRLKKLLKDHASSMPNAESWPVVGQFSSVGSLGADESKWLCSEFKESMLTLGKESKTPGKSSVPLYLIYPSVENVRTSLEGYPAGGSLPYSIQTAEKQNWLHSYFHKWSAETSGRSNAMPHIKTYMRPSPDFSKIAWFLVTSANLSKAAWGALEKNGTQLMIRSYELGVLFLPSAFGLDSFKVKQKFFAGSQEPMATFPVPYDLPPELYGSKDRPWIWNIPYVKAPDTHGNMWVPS

IC50 (recombinant human TDP1; read-out: IC50 (μM) for TDP1, gel-based assay, Table 1) [µM] | Structure (SMILES) | GI50 (MCF-7 cells; MTT assay, 72 h, Table 1) [µM] | GI50 (HCT-116 cells; MTT assay, 72 h, Table 1) [µM] | GI50 (MCF-7 cells; Homo sapiens, MCF7, 72 h) [µM] | TOP1 Inhibition (recombinant TOP1; Table 1) | IC50 (recombinant human TDP1) [µM] | GI50 (HCT-116 cells; Homo sapiens, HCT-116, 72 h) [µM] | TOP1 Inhibition (recombinant TOP1; Table 2) | IC50 (recombinant human TDP1; read-out: IC50 (μM) for TDP1, gel-based assay, Table 2) [µM]
> 111 | COc1cc2c(=O)n(C)c3c4cc5c(cc4ccc3c2cc1OC)OCO5 [Compound 4, oxynitidine, reference compound] | > 100 | 75 ± 4.4 | – | – | – | – | – | –
– | COc1cc2c(=O)n(C)c3c4cc5c(cc4c(OC(C)=O)cc3c2cc1OC)OCO5 [Compound 10, 2,3-Dimethoxy-12-methyl-13-oxo-12,13-dihydro-[1,3]dioxolo[4’,5’:4,5]benzo[1,2-c]phenanthridin-6-yl acetate] | – | – | > 100 | + (+, between 20% and 50% activity) | > 111 | > 100 | – | –
– | COc1cc2c(=O)n(C)c3c4cc5c(cc4c(O)cc3c2cc1OC)OCO5 [Compound 11, 6-Hydroxy-2,3-dimethoxy-12-methyl-[1,3]dioxolo[4’,5’:4,5]benzo[1,2-c]phenanthridin-13(12H)-one] | – | – | > 100 | 0 | > 111 | > 100 | – | –
– | CNCCOc1cc2c3cc(OC)c(OC)cc3c(=O)n(C)c2c2cc3c(cc12)OCO3 [Compound 12, 2,3-Dimethoxy-12-methyl-6-(2-(methylamino)ethoxy)-[1,3]dioxolo[4’,5’:4,5]benzo[1,2-c]phenanthridin-13(12H)-one] | – | – | 2.2 ± 0.06 | +++ (+++, between 75% and 95% activity) | > 111 | 1.3 ± 0.12 | – | –
– | CNCCCOc1cc2c3cc(OC)c(OC)cc3c(=O)n(C)c2c2cc3c(cc12)OCO3 [Compound 13, 2,3-Dimethoxy-12-methyl-6-(3-(methylamino)propoxy)-[1,3]dioxolo[4’,5’:4,5]benzo[1,2-c]phenanthridin-13(12H)-one] | – | – | 33 ± 5 | + (+, between 20% and 50% activity) | > 111 | 12 ± 1.2 | – | –
– | COc1cc2c(=O)n(C)c3c4cc5c(cc4c(OCCN(C)C)cc3c2cc1OC)OCO5 [Compound 14, 6-(2-(Dimethylamino)ethoxy)-2,3-dimethoxy-12-methyl-[1,3]dioxolo[4’,5’:4,5]benzo[1,2-c]phenanthridin-13(12H)-one] | – | – | 8.5 ± 0.91 | + (+, between 20% and 50% activity) | 37 to 111 | 4.6 ± 0.41 | – | –
– | COc1cc2c(=O)n(C)c3c4cc5c(cc4c(OCCCN(C)C)cc3c2cc1OC)OCO5 [Compound 15, 6-(3-(Dimethylamino)propoxy)-2,3-dimethoxy-12-methyl-[1,3]dioxolo[4’,5’:4,5]benzo[1,2-c]phenanthridin-13(12H)-one] | – | – | 54 ± 4.9 | + (+, between 20% and 50% activity) | > 111 | 36 ± 1.3 | – | –
– | COc1cc2c(=O)n(C)c3c4cc5c(cc4c(OCCN4CCCCC4)cc3c2cc1OC)OCO5 [Compound 16, 2,3-Dimethoxy-12-methyl-6-(2-(piperidin-1-yl)ethoxy)-[1,3]dioxolo[4’,5’:4,5]benzo[1,2-c]phenanthridin-13(12H)-one] | – | – | 22 ± 7.7 | + (+, between 20% and 50% activity) | > 111 | > 100 | – | –
– | COc1cc2c(=O)n(C)c3c4cc5c(cc4c(OCCCN4CCCCC4)cc3c2cc1OC)OCO5 [Compound 17, 2,3-Dimethoxy-12-methyl-6-(3-(piperidin-1-yl)propoxy)-[1,3]dioxolo[4’,5’:4,5]benzo[1,2-c]phenanthridin-13(12H)-one] | – | – | 6.6 ± 1.3 | ++ (++, between 50% and 75% activity) | > 111 | 1.8 ± 0.32 | – | –
– | COc1cc2c(=O)n(C)c3c4cc5c(cc4c(OCCN4CCN(C)CC4)cc3c2cc1OC)OCO5 [Compound 18, 2,3-Dimethoxy-12-methyl-6-(2-(4-methylpiperazin-1-yl)ethoxy)-[1,3]dioxolo[4’,5’:4,5]benzo[1,2-c]phenanthridin-13(12H)-one] | – | – | 7 ± 1.3 | + (+, between 20% and 50% activity) | 37 to 111 | 7.7 ± 0.56 | – | –
– | COc1cc2c(=O)n(C)c3c4cc5c(cc4c(OCCCN4CCN(C)CC4)cc3c2cc1OC)OCO5 [Compound 19, 2,3-Dimethoxy-12-methyl-6-(3-(4-methylpiperazin-1-yl)propoxy)-[1,3]dioxolo[4’,5’:4,5]benzo[1,2-c]phenanthridin-13(12H)-one] | – | – | 0.93 ± 0.07 | ++ (++, between 50% and 75% activity) | > 111 | 1.5 ± 0.21 | – | –
– | COc1cc2c(=O)n(C)c3c4cc5c(cc4c(OCCn4ccnc4)cc3c2cc1OC)OCO5 [Compound 20, 6-(2-(1H-Imidazol-1-yl)ethoxy)-2,3-dimethoxy-12-methyl-[1,3]dioxolo[4’,5’:4,5]benzo[1,2-c]phenanthridin-13(12H)-one] | – | – | 2.7 ± 0.23 | ++ (++, between 50% and 75% activity) | > 111 | 2.9 ± 0.45 | – | –
– | COc1cc2c(=O)n(C)c3c4cc5c(cc4c(OCCCn4ccnc4)cc3c2cc1OC)OCO5 [Compound 21, 6-(3-(1H-Imidazol-1-yl)propoxy)-2,3-dimethoxy-12-methyl-[1,3]dioxolo[4’,5’:4,5]benzo[1,2-c]phenanthridin-13(12H)-one] | – | – | 64 ± 3.9 | 0 | > 111 | 16 ± 3.6 | – | –
– | COc1cc2c(=O)n(C)c3c4cc5c(cc4c(OCCNCCN(C)C)cc3c2cc1OC)OCO5 [Compound 22, 6-(2-((2-(Dimethylamino)ethyl)amino)ethoxy)-2,3-dimethoxy-12-methyl-[1,3]dioxolo[4’,5’:4,5]benzo[1,2-c]phenanthridin-13(12H)-one] | – | – | 9.1 ± 2.4 | + (+, between 20% and 50% activity) | > 111 | 9.1 ± 1 | – | –
– | CCOC(=O)COc1cc2c3cc(OC)c(OC)cc3c(=O)n(C)c2c2cc3c(cc12)OCO3 [Compound 23, Ethyl 2-((2,3-dimethoxy-12-methyl-13-oxo-12,13-dihydro-[1,3]dioxolo[4’,5’:4,5]benzo[1,2-c]phenanthridin-6-yl)oxy)acetate] | – | – | 91 ± 5.9 | 0 | > 111 | > 100 | – | –
– | COc1cc2c(=O)n(C)c3c4cc5c(cc4cc(O)c3c2cc1OC)OCO5 [Compound 33, 5-Hydroxy-2,3-dimethoxy-12-methyl-[1,3]dioxolo[4’,5’:4,5]benzo[1,2-c]phenanthridin-13(12H)-one] | – | – | > 100 | – | > 111 | > 100 | + (+, between 20% and 50% activity) | –
– | COc1cc2c(=O)n(C)c3c4cc5c(cc4cc(OCCN(C)C)c3c2cc1OC)OCO5 [Compound 34, 5-(2-(Dimethylamino)ethoxy)-2,3-dimethoxy-12-methyl-[1,3]dioxolo[4’,5’:4,5]benzo[1,2-c]phenanthridin-13(12H)-one] | – | – | 27 ± 1.5 | – | 37 to 111 | 11 ± 0.48 | + (+, between 20% and 50% activity) | –
– | CCN(CC)CCOc1cc2cc3c(cc2c2c1c1cc(OC)c(OC)cc1c(=O)n2C)OCO3 [Compound 36, 5-(2-(Diethylamino)ethoxy)-2,3-dimethoxy-12-methyl-[1,3]dioxolo[4’,5’:4,5]benzo[1,2-c]phenanthridin-13(12H)-one] | – | – | 1.6 ± 0.17 | – | – | 2.1 ± 0.23 | 0 | > 111
– | CCN(CC)CCCOc1cc2cc3c(cc2c2c1c1cc(OC)c(OC)cc1c(=O)n2C)OCO3 [Compound 37, 5-(3-(Diethylamino)propoxy)-2,3-dimethoxy-12-methyl-[1,3]dioxolo[4’,5’:4,5]benzo[1,2-c]phenanthridin-13(12H)-one] | – | – | 2 ± 0.1 | – | 15 ± 2.4 | 2.4 ± 0.11 | + (+, between 20% and 50% activity) | –
– | COc1cc2c(=O)n(C)c3c4cc5c(cc4cc(OCCCN4CCCC4)c3c2cc1OC)OCO5 [Compound 39, 2,3-Dimethoxy-12-methyl-5-(3-(pyrrolidin-1-yl)propoxy)-[1,3]dioxolo[4’,5’:4,5]benzo[1,2-c]phenanthridin-13(12H)-one] | – | – | 1.4 ± 0.13 | – | 15 ± 2.8 | 1.3 ± 0.21 | + (+, between 20% and 50% activity) | –
– | COc1cc2c(=O)n(C)c3c4cc5c(cc4cc(OCCN4CCOCC4)c3c2cc1OC)OCO5 [Compound 40, 2,3-Dimethoxy-12-methyl-5-(2-morpholinoethoxy)-[1,3]dioxolo[4’,5’:4,5]benzo[1,2-c]phenanthridin-13(12H)-one] | – | – | 18 ± 0.67 | – | > 111 | 15 ± 1.08 | ++ (++, between 50% and 75% activity) | –
